Test results published in publication PMC12649549, “Sequence Permutation Generated Lysine and Tryptophan-Rich Antimicrobial Peptides with Enhanced Therapeutic Index” (Antibiotics, 2025).
Like-named read-outs stand apart in the source and are kept apart here.

Assays:
Gram-positive bacteria = assay: Geometric mean MIC and therapeutic index, Gram-positive bacteria; type: cell-based; details: Gram-positive bacteria
Method in brief: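 Selectivity index derived from human red blood cell HC10 relative to geometric mean MIC. Inoculum was 5 × 10^5 CFU/mL in Müller-Hinton or modified LYM broth, and each experiment was repeated independently three times.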

S. aureus ATCC 33592 = system: S. aureus ATCC 33592
Method in brief: (§1)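 Salt and pH tolerance was assessed by determining MICs in LYM medium containing 50–300 mM NaCl, 0.5–2.5 mM MgCl2, or at pH 4.5–6.5, alongside MH broth. The inoculum was 5 × 10^5 CFU/mL.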

[1] = system: A. baumannii 14B00100 (Acinetobacter sp., BCRC number 14B0100)
Method in brief: as §1

S. aureus ATCC 33593 = system: S. aureus ATCC 33593
Method in brief: as §1

S. aureus ATCC 33591 = system: S. aureus ATCC 33591
Method in brief: as §1

[2] = LYM broth, 0 mM NaCl, 16 h, 37 °C
[3] = LYM broth, 50 mM NaCl, 16 h, 37 °C
[4] = LYM broth, 100 mM NaCl, 16 h, 37 °C
[5] = LYM broth, 200 mM (NaCl), 16 h, 37 °C
[6] = LYM broth, 300 mM (NaCl), 16 h, 37 °C
[7] = MH broth, 5 × 10^5 CFU/mL, 16 h, 37 °C, repeated three times

Q: Ac-WLAKKKKWRKWLK-NH2 [Peptide W5K08] was tested. Which “GM G+ (geometric mean of the MIC values)” value (Gram-positive bacteria; MH broth, MIC >50 µg/mL counted as 100 µg/mL) did it give?
A: 75.8 µg/mL

Q: And the “Therapeutic Index (TI) G+” value (Gram-positive bacteria; HC10/GM)?
A: 1.4

Q: And the MIC (S. aureus ATCC 33592; [2])?
A: 25 µg/mL

Q: And the MIC (S. aureus ATCC 33592; LYM broth, 0.5 mM MgCl2)?
A: 25 µg/mL

Q: And the MIC (S. aureus ATCC 33592; LYM broth, 1.5 mM MgCl2)?
A: 25 µg/mL

Q: And the MIC (S. aureus ATCC 33592; LYM broth, 2.5 mM MgCl2)?
A: 50 µg/mL

Q: What about the MIC (S. aureus ATCC 33592; [3]) of the same substance?
A: 50 µg/mL

Q: And the MIC (S. aureus ATCC 33592; [4])?
A: 50 µg/mL

Q: What about the MIC (S. aureus ATCC 33592; [5]) of the same substance?
A: >50 µg/mL

Q: What about the MIC (S. aureus ATCC 33592; [6]) of the same substance?
A: >50 µg/mL

Q: And the MIC (S. aureus ATCC 33592; LYM broth, pH 4.5)?
A: 25 µg/mL

Q: And the MIC (S. aureus ATCC 33592; LYM broth, pH 5.5)?
A: 25 µg/mL

Q: And the MIC (S. aureus ATCC 33592; LYM broth, pH 6.5)?
A: 12.5 µg/mL

Q: And the MIC (S. aureus ATCC 33592; [7])?
A: >50 µg/mL

Q: And the MIC [1, 2]?
A: 3.13 µg/mL

Q: And the MIC ([1]; LYM broth, 0.5 mM MgCl2)?
A: 3.13 µg/mL

Q: What about the MIC ([1]; LYM broth, 1.5 mM MgCl2) of the same substance?
A: 3.13 µg/mL

Q: What about the MIC ([1]; LYM broth, 2.5 mM MgCl2) of the same substance?
A: 6.25 µg/mL

Q: What about the MIC [1, 3] of the same substance?
A: 6.25 µg/mL

Q: What about the MIC [1, 4] of the same substance?
A: 25 µg/mL

Q: What about the MIC [1, 5] of the same substance?
A: >50 µg/mL

Q: What about the MIC [1, 6] of the same substance?
A: >50 µg/mL

Q: What about the MIC ([1]; LYM broth, pH 4.5) of the same substance?
A: 3.13 µg/mL

Q: And the MIC ([1]; LYM broth, pH 5.5)?
A: 3.13 µg/mL

Q: And the MIC ([1]; LYM broth, pH 6.5)?
A: 3.13 µg/mL

Q: What about the MIC [1, 7] of the same substance?
A: >50 µg/mL

Q: What about the MIC (S. aureus ATCC 33593; [2]) of the same substance?
A: 25 µg/mL

Q: What about the MIC (S. aureus ATCC 33593; LYM broth, 0.5 mM MgCl2) of the same substance?
A: 25 µg/mL

Q: What about the MIC (S. aureus ATCC 33593; LYM broth, 1.5 mM MgCl2) of the same substance?
A: 25 µg/mL

Q: What about the MIC (S. aureus ATCC 33593; LYM broth, 2.5 mM MgCl2) of the same substance?
A: 50 µg/mL

Q: And the MIC (S. aureus ATCC 33593; [3])?
A: 50 µg/mL

Q: What about the MIC (S. aureus ATCC 33593; [4]) of the same substance?
A: 50 µg/mL

Q: And the MIC (S. aureus ATCC 33593; [5])?
A: >50 µg/mL

Q: And the MIC (S. aureus ATCC 33593; [6])?
A: >50 µg/mL

Q: And the MIC (S. aureus ATCC 33593; LYM broth, pH 4.5)?
A: 25 µg/mL

Q: And the MIC (S. aureus ATCC 33593; LYM broth, pH 5.5)?
A: 12.5 µg/mL

Q: What about the MIC (S. aureus ATCC 33593; LYM broth, pH 6.5) of the same substance?
A: 12.5 µg/mL

Q: And the MIC (S. aureus ATCC 33593; [7])?
A: >50 µg/mL

Q: What about the MIC (S. aureus ATCC 33591; [2]) of the same substance?
A: 25 µg/mL

Q: What about the MIC (S. aureus ATCC 33591; LYM broth, 0.5 mM MgCl2) of the same substance?
A: 25 µg/mL

Q: What about the MIC (S. aureus ATCC 33591; LYM broth, 1.5 mM MgCl2) of the same substance?
A: 50 µg/mL

Q: And the MIC (S. aureus ATCC 33591; LYM broth, 2.5 mM MgCl2)?
A: 50 µg/mL

Q: What about the MIC (S. aureus ATCC 33591; [3]) of the same substance?
A: 50 µg/mL

Q: And the MIC (S. aureus ATCC 33591; [4])?
A: 50 µg/mL

Q: What about the MIC (S. aureus ATCC 33591; [5]) of the same substance?
A: 50 µg/mL

Q: And the MIC (S. aureus ATCC 33591; [6])?
A: >50 µg/mL

Q: And the MIC (S. aureus ATCC 33591; LYM broth, pH 4.5)?
A: 25 µg/mL

Q: What about the MIC (S. aureus ATCC 33591; LYM broth, pH 5.5) of the same substance?
A: 25 µg/mL

Q: What about the MIC (S. aureus ATCC 33591; LYM broth, pH 6.5) of the same substance?
A: 12.5 µg/mL

Q: What about the MIC (S. aureus ATCC 33591; [7]) of the same substance?
A: >50 µg/mL
